For one assay, the target named is T1, PRMT5/MEP50 (Homo sapiens, UniProt O14744).
T1 construct: Flag-PRMT5; made in house; host or cells: Spodoptera frugiperda (SF9) insect cells, baculovirus (pDEST8)
Put plainly: PRMT5 Biochemical Assay (PRMT5/MEP50 enzyme assay on peptide substrate, 3H-SAM Flashplate). The following applies: PRMT5/MEP50 4 nM, 3H-SAM 75 nM, peptide 40 nM, 30 min preincubation at 25 degrees Celsius. An excerpt:
S-adenosylmethionine (SAM), S-adenosylhomocysteine (SAH), bicine, KCl, Tween20, dimethylsulfoxide (DMSO), bovine skin gelatin (BSG), and Tris(2-carboxyethyl)phosphine hydrochloride solution (TCEP) were purchased from Sigma-Aldrich at the highest level of purity possible. ^3H-SAM was purchase from American Radiolabeled Chemicals with a specific activity of 80 Ci/mmol. 384-well streptavidin Flashplates were purchased from PerkinElmer.
Peptide representative of human histone H4 residues 1-15 was synthesized with a C-terminal linker-affinity tag motif and a C-terminal amide cap by 21st Century Biochemicals. The peptide was high high-performance liquid chromatography (HPLC) purified to greater than 95% purity and confirmed by liquid chromatography mass spectrometry (LC-MS). The sequence was Ac-[…][K-Biot]-amide (SEQ ID NO.:3).
Full-length human PRMT5 (NM_006109.3) transcript variant 1 clone was amplified from a fetal brain cDNA library, incorporating flanking 5′ sequence encoding a FLAG tag ([…]) (SEQ ID NO.:4) fused directly to Ala 2 of PRMT5. Full-length human MEP50 (NM_024102) clone was amplified from a human testis cDNA library incorporating a 5′ sequence encoding a 6-histidine tag (MHHHHHH) (SEQ ID NO.:5) fused directly to Arg 2 of MEP50. The amplified genes were sublconed into pENTR/D/TEV (Life Technologies) and subsequently transferred by Gateway™ attL×attR recombination to pDEST8 baculvirus expression vector (Life Technologies).
Recombinant baculovirus and Baculovirus-Infected Insect Cells (BIIC) were generated according to Bac-to-Bac kit instructions (Life Technologies) and Wasilko, 2006, respectively. Protein over-expression was accomplished by infecting exponentially growing Spodoptera frugiperda (SF9) cell culture at 1.2×10^6 cell/ml with a 5000 fold dilution of BIIC stock. Infections were carried out at 27° C. for 72 hours, harvested by centrifugation, and stored at −80° C. for purification.
Flag-PRMT5/6His-MeP50 was eluted with 300 mM Imidazole in the same buffer. The purity of recovered protein was 87%. Reference: Wasilko, D. J. and S. E. Lee: “TIPS: titerless infected-cells preservation and scale-up” Bioprocess J., 5 (2006), pp. 29-32.
General Procedure for PRMT5/MEP50 Enzyme Assays on Peptide Substrates.
The assays were all performed in a buffer consisting of 20 mM Bicine (pH=7.6), 1 mM TCEP, 0.005% BSG, and 0.002% Tween20, prepared on the day of use. Compounds in 100% DMSO (1 ul) were spotted into a polypropylene 384-well V-bottom plates (Greiner) using a Platemate Plus outfitted with a 384-channel head (Thermo Scientific). DMSO (1 ul) was added to Columns 11, 12, 23, 24, rows A-H for the maximum signal control and 1 ul of SAH, a known product and inhibitor of PRMT5/MEP50, was added to columns 11, 12, 23, 24, rows I-P for the minimum signal control. A cocktail (40 ul) containing the PRMT5/MEP50 enzyme and the peptide was added by Multidrop Combi (Thermo-Fisher). The compounds were allowed to incubate with PRMT5/MEP50 for 30 min at 25 degrees Celsius, then a cocktail (10 ul) containing ^3H-SAM was added to initiate the reaction (final volume=51 ul). The final concentrations of the components were as follows: PRMT5/MEP50 was 4 nM, ^3H-SAM was 75 nM, peptide was 40 nM, SAH in the minimum signal control wells was 100 uM, and the DMSO concentration was 1%. The assays were stopped by the addition of non-radioactive SAM (10 ul) to a final concentration of 600 uM, which dilutes the ^3H-SAM to a level where its incorporation into the peptide substrate is no longer detectable. 50 ul of the reaction in the 384-well polypropylene plate was then transferred to a 384-well Flashplate and the biotinylated peptides were allowed to bind to the streptavidin surface for at least 1 hour before being washed three times with 0.1% Tween20 in a Biotek ELx405 plate washer. […]

A further assay concerns Z-138 cell line. Kind of assay: Z-138 Proliferation Assay (Cell Titer Glo). As to conditions: Homo sapiens, 120 h; Z-138 cells, 5 days incubation, ATP (Cell Titer Glo). The assay is classed as cell-based. An excerpt: Z-138 Proliferation Assay
Z-138 suspension cells were purchased from ATCC (American Type Culture Collection, Manassas, Va.). RPMI/Glutamax medium, penicillin-streptomycin, heat inactivated fetal bovine serum were purchased from Life Technologies, Grand Island, N.Y., USA. V-bottom polypropylene 384-well plates were purchased from Greiner Bio-One, Monroe, N.C., USA. Cell culture 384-well white opaque plates were purchased from Perkin Elmer, Waltham, Mass., USA. Cell-Titer Glo® was purchased from Promega Corporation, Madison, Wis., USA. SpectraMax M5 plate reader was purchased from Molecular Devices LLC, Sunnyvale, Calif., USA.
Z-138 suspension cells were maintained in growth medium (RPMI 1640 supplemented with 10% v/v heat inactivated fetal bovine serum and cultured at 37° C. under 5% CO2. Under assay conditions, cells were incubated in assay medium (RPMI 1640 supplemented with 10% v/v heat inactivated fetal bovine serum and 100 units/mL penicillin-streptomycin) at 37° C. under 5% CO2.
For the assessment of the effect of compounds on the proliferation of the Z-138 cell line, exponentially growing cells were plated in 384-well white opaque plates at a density of 10,000 cells/ml in a final volume of 50 μl of assay medium. A compound source plate was prepared by performing triplicate nine-point 3-fold serial dilutions in DMSO, beginning at 10 mM (final top concentration of compound in the assay was 20 μM and the DMSO was 0.2%). A 100 nL aliquot from the compound stock plate was added to its respective well in the cell plate. […] After addition of compounds, assay plates were incubated for 5 days at 37° C., 5% CO2, relative humidity >90%.
Cell viability was measured by quantitation of ATP present in the cell cultures, adding 35 μl of Cell Titer Glo® reagent to the cell plates. Luminescence was read in the SpectraMax M5 microplate reader. The concentration of compound inhibiting cell viability by 50% was determined using a 4-parametric fit of the normalized dose response curves.
On the technique in general: ATP-based viability assays read luminescence as a measure of living cells.

The test system of assay [1] is Symmetric di-Methyl Arginine in Z-138 cells. Kind of assay: Z-138 Methylation Assay (In Cell Western for symmetric di-methyl arginine). The following applies: Homo sapiens, 96 hours incubation, symmetric di-methyl arginine normalised to DNA content, read-out: ICW EC50. The assay is classed as cell-based. An excerpt:
Z-138 suspension cells were purchased from ATCC (American Type Culture Collection, Manassas, Va.). RPMI/Glutamax medium, penicillin-streptomycin, heat inactivated fetal bovine serum, and D-PBS were purchased from Life Technologies, Grand Island, N.Y., USA. Odyssey blocking buffer, 800CW goat anti-rabbit IgG (H+L) antibody, and Licor Odyssey infrared scanner were purchased from Licor Biosciences, Lincoln, Nebr., USA. Symmetric di-methyl arginine antibody was purchased from EMD Millipore, Billerica, Mass., USA. 16% Paraformaldehyde was purchased from Electron Microscopy Sciences, Hatfield, Pa., USA.
Z-138 suspension cells were maintained in growth medium (RPMI 1640 supplemented with 10% v/v heat inactivated fetal bovine serum and 100 units/mL penicillin-streptomycin) and cultured at 37° C. under 5% CO2.
Cell Treatment, In Cell Western (ICW) for detection of Symmetric di-Methyl Arginine and DNA content.
Z-138 cells were seeded in assay medium at a concentration of 50,000 cells per mL to a 384-well cell culture plate with 50 μL per well. Compound (100 nL) from 384 well source plates was added directly to 384 well cell plate. Plates were incubated at 37° C., 5% CO2 for 96 hours. After four days of incubation, 40 μL of cells from incubated plates were added to poly-D-lysine coated 384 well culture plates (BD Biosciences 356697). Plates were incubated at room temperature for 30 minutes then incubated at 37° C., 5% CO2 for 5 hours. After the incubation, 40 μL per well of 8% paraformaldehyde in PBS (16% paraformaldahyde was diluted to 8% in PBS) was added to each plate and incubated for 30 minutes. Plates were transferred to a Biotek 405 plate washer and washed 5 times with 100 μL per well of wash buffer (IX PBS with 0.1% Triton X-100 (v/v)). Next […] well of Odyssey blocking buffer were added to each plate and incubated 1 hour at room temperature. Blocking buffer was removed and 20 μL per well of primary antibody was added (symmetric di-methyl arginine diluted 1:100 in Odyssey buffer with 0.1% Tween 20 (v/v)) and plates were incubated overnight (16 hours) at 4° C. Plates were washed 5 times with 100 μL per well of wash buffer. Next 20 μL per well of secondary antibody was added (1:200 800CW goat anti-rabbit IgG (H+L) antibody, 1:1000 DRAQ5 (Biostatus limited) in Odyssey buffer with 0.1% Tween 20 (v/v)) and incubated for 1 hour at room temperature. The plates were washed 5 times with 100 μL per well wash buffer then 1 time with 100 μL per well of water. Plates were allowed to dry at room temperature then imaged on the Licor Odyssey machine which measures integrated intensity at 700 nm and 800 nm wavelengths. Both 700 and 800 channels were scanned.
First, the ratio for each well was determined by:
Each plate included fourteen control wells of DMSO only treatment (minimum inhibition) as well as fourteen control wells for maximum inhibition treated with 3 μM of a reference compound (Background wells). The average of the ratio values for each control type was calculated and used to determine the percent inhibition for each test well in the plate. Reference compound was serially diluted three-fold in DMSO for a total of nine test concentrations, beginning at 3 μM. Percent inhibition was determined and IC50 curves were generated using triplicate wells per concentration of compound.

We go through seven compounds from US20170210751A1, “PRMT5 INHIBITORS AND USES THEREOF” (Epizyme, Inc., priority 2014, published 2017).

By IC50 is commonly meant the point on the concentration scale where inhibition reaches its midpoint. Broadly, the EC50 is the concentration needed to bring the measured effect to its halfway point.

T1 sequence (O14744 with tags, fused parts or gaps): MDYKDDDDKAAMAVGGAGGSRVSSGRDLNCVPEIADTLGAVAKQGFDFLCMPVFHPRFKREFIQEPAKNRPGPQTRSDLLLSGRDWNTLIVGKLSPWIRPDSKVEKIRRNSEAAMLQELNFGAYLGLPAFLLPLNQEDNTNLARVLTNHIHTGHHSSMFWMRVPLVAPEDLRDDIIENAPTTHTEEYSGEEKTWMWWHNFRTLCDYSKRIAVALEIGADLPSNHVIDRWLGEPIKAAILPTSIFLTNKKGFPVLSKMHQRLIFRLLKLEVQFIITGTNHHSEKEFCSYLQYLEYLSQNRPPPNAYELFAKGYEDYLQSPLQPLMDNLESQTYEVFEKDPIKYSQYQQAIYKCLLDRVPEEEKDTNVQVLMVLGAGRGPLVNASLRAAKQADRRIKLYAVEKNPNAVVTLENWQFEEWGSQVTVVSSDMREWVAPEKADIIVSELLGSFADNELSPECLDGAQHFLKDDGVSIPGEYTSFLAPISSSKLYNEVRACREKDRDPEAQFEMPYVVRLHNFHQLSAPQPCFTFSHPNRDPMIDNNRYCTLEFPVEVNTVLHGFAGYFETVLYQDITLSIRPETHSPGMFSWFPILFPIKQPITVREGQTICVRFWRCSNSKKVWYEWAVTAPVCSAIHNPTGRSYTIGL
T1 sequence (Q9BQA1 with tags, fused parts or gaps partner limits assumed): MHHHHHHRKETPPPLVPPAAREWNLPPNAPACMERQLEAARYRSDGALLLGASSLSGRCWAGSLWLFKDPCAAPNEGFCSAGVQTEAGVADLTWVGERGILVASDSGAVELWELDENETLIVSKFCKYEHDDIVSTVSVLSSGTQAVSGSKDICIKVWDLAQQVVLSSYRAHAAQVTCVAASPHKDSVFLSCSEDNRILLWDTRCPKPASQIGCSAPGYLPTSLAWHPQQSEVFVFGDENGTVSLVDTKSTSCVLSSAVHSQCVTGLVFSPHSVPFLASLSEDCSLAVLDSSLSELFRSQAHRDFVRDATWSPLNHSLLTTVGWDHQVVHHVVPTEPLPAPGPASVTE

Consider `CC(=O)N1CC(Nc2cc(C(=O)NC[C@H](O)CN3CCc4nc(C)sc4C3)ncn2)C1` [Compound 1-6, (S)-6-((1-acetylazetidin-3-yl)amino)-N-(2-hydroxy-3-(2-methyl-6,7-dihydrothiazolo[5,4-c]pyridin-5(4H)-yl)propyl)pyrimidine-4-carboxamide], for which, on PRMT5/MEP50, the IC50 fell in the range of 1 to 10 µM. Besides, the EC50 in the assay with Z-138 cell line is over 5 µM.

On to `OC(COc1cccc(CNC2CCCC2)c1)CN1CCc2ncccc2C1` (centres unmarked) [Compound 2-1, 1-(3-((cyclopentylamino)methyl)phenoxy)-3-(7,8-dihydro-1,6-naphthyridin-6(5H)-yl)propan-2-ol], for which, on PRMT5/MEP50, the IC50 was over 50 µM. In the assay on Z-138 cell line, the EC50 was over 40 µM.

`O=C(NC[C@H](O)CN1CCc2cccnc2C1)c1cc(NC2COC2)ncn1` [Compound 2-10]: on PRMT5/MEP50, the concentration for half-maximal inhibition (IC50) was in the range of 1 to 10 µM. In the assay with Z-138 cell line, this compound displayed an EC50 of 1 to 10 µM.

As to `OC(COc1cccc(CNC2CCCC2)c1)CN1CCc2[nH]nc(-c3ccccc3)c2C1` (centres unmarked) [Compound 3-9, 1-(3-((cyclopentylamino)methyl)phenoxy)-3-(3-phenyl-6,7-dihydro-1H-pyrazolo[4,3-c]pyridin-5(4H)-yl)propan-2-ol], the IC50 on PRMT5/MEP50 is 10 to 50 µM. The EC50 in the assay with Z-138 cell line lay in the range of 10 to 50 µM.

In the case of `OC(COc1cccc(CNC2CCCC2)c1)CN1CCc2[nH]ncc2C1` (centres unmarked) [Compound 3-14], the IC50 at PRMT5/MEP50 is over 50 µM. In the assay on Z-138 cell line, this compound came in with an EC50 of over 40 µM.

Regarding `O=C(NC[C@H](O)CN1CCc2[nH]ncc2C1)c1cc(NC2COC2)ncn1` [Compound 3-19], in assay [1], the EC50 was over 1 µM. Also, the IC50 on PRMT5/MEP50 is over 10 µM.

Consider `O=C(NC[C@H](O)CN1CCc2cn[nH]c2C1)c1cc(NC2COC2)ncn1` [Compound 3-39], for which the IC50 on PRMT5/MEP50 was over 10 µM. Further, the EC50 in the assay on Z-138 cell line is over 5 µM.
